The results in this text go back to patent publication US20060079550A1, “Amino acid derivatives useful for the treatment of alzheimer's disease” (priority 2001, published 2006).

Some results are limits rather than exact numbers.

The assay addresses aspartyl proteases, in particular, beta-secretase. In words: Ki of the compounds listed in Tables 1 and 2 (no method described). The assay is classed as biochemical. As to conditions: Table 1, compounds of formula Ia, W is -(CH2)n-.
For orientation: Ki means the dissociation constant of the complex between target and ligand, obtained from inhibition or displacement. `Cc1ccc(S(=O)(=O)N(CC(C)C)C(CCCCNC(=O)C=Cc2ccccc2)C(=O)O)cc1` (stereo not drawn) [compound 90]: the Ki was 747 nM.

Regarding `Cc1ccc(S(=O)(=O)N(Cc2ccccc2)[C@@H](CCCCNC(=O)OCC2c3ccccc3-c3ccccc32)C(=O)O)cc1` [Compound No. 40, Nα-benzyl-Nα-(4-methylbenzenesulfonyl)-Nε-(9-fluorenylmethoxycarbonyl)-L-lysine], the inhibition constant Ki stood at 19.6 nM.

On to `Cc1ccc(S(=O)(=O)N(CC(C)C)C(CCCNC(=O)OCC2c3ccccc3-c3ccccc32)C(=O)O)cc1` (racemic) [Compound No. 6, Nα-isobutyl-Nα-(4-methylbenzenesulfonyl)-Nδ-(9-fluorenylmethoxycarbonyl)-DL-ornithine], for which the Ki was 180 nM. Take `CC(C)CN([C@@H](CCCCNC(=O)C1c2ccccc2Oc2ccccc21)C(=O)O)S(=O)(=O)c1ccc([N+](=O)[O-])cc1` [Compound No. 96, Nα-isobutyl-Nα-(4-nitrobenzenesulfonyl)-Nε-(9xanthenecarbonyl)-L-lysine]: the Ki came out at 43.9 nM. `CC(C)CN(CCCC[C@H](NC(=O)OCC1c2ccccc2-c2ccccc21)C(=O)O)S(=O)(=O)c1ccc(Br)cc1` [Compound No. 21, Nα-(9-fluorenylmethoxycarbonyl)-Nε-isobutyl-Nε-(4-bromobenzenesulfonyl)-L-lysine] returned a Ki of 2000 nM. Compound `O=C(N[C@@H](CCCCNS(=O)(=O)c1ccccc1)C(=O)O)OCC1c2ccccc2-c2ccccc21` [Compound No. 49, Nε-benzenesulfonyl-Nα-(9-fluorchylmethoxycarbonyl)-L-lysine] gave a Ki of 8900 nM. Next, `O=C(N[C@@H](CCCCNS(=O)(=O)c1ccc([N+](=O)[O-])cc1)C(=O)O)OCC1c2ccccc2-c2ccccc21` [Compound No. 50, Nε-(4-nitrobenzenesulfonyl)-Nα-(9-fluorenylmethoxycarbonyl)-L-lysine]: 6000 nM; `CC(C)CN(CCC[C@H](NC(=O)OCC1c2ccccc2-c2ccccc21)C(=O)O)S(=O)(=O)c1ccc(Br)cc1` [Compound No. 41, Nα-(9-fluorenylmethoxycarbonyl)-Nδ-isobutyl-Nδ-(4-bromobenzenesulfonyl)-L-ornithine]: more than 50000 nM; `Cc1ccc(S(=O)(=O)N(CC(C)C)C(CCCCN(CC(C)C)C(=O)CCc2ccccc2)C(=O)O)cc1` (racemic) [Compound No. 159, Nα,Nε-diisobutyl-Nα-(4-methylbenzenesulfonyl)-Nε-(3-phenylpropanoyl)-DL-lysine]: more than 300 nM. With `CC(C)c1cc(C(C)C)c(S(=O)(=O)NCCCC[C@H](NC(=O)OCC2c3ccccc3-c3ccccc32)C(=O)O)c(C(C)C)c1` [Compound No. 25, Nε-(2,4,6-triisopropylbenzencsulfonyl)-Nα-(9-fluorenylmethoxycarbonyl)-L-lysine] the figure was more than 3100 nM.

`CC(C)CN([C@@H](CCCCNC(=O)CCc1ccccc1)C(=O)O)S(=O)(=O)c1ccc(N)cc1` [Compound No. 158, Nα-isobutyl-Nα-(4-aminobenzenesulfonyl)-Nε-dihydrocinnamoyl-L-lysine] showed a Ki of more than 300 nM. Consider `CC(C)CN([C@@H](CCCCNC(=O)CCc1ccccc1N)C(=O)O)S(=O)(=O)c1ccc(N)cc1` [Compound No. 122, Nα-isobutyl-Nα-(4-aminobenzenesulfonyl)-Nε-(2-aminodihydrocinnamoyl)-L-lysine], for which the Ki was more than 300 nM. With `O=C(N[C@@H](CCCCNS(=O)(=O)c1ccc(Br)cc1)C(=O)O)c1cnc2cc(C(F)(F)F)ccc2c1O` [Compound No. 23, Nα-(4-hydroxy-7-trifluoromethylquinoline-3-carbonyl)-Nε-(4-bromobenzenesulfonyl)-L-lysine] the figure was more than 50000 nM; with `Cc1ccc(S(=O)(=O)N(CC(C)C)[C@@H](CCCCNC(=O)CCc2ccc(O)cc2)C(=O)O)cc1` [Compound No. 126, Nα-isobutyl-Nα-(4-methylbenzenesulfonyl)-Nε-(4-hydroxydihydrocinnamoyl)-L-lysine], more than 300 nM. On to `O=C(NCCCC[C@H](NS(=O)(=O)c1ccccc1[N+](=O)[O-])C(=O)O)OCC1c2ccccc2-c2ccccc21` [Compound No. 107, Nα-(2-nitrobenzenesulfonyl)-Nε-(9-fluorenylmethoxycarbonyl)-L-lysine], for which the affinity, expressed as Ki, was 3970 nM.

`COc1cccc(CCC(=O)NCCCC[C@@H](C(=O)O)N(CC(C)C)S(=O)(=O)c2ccc(N)cc2)c1` [Compound No. 156, Nα-isobutyl-Nα-(4-aminobenzenesulfonyl)-Nε-(3-methoxydihydrocinnamoyl)-L-lysine] yielded a Ki of 16.7 nM.

In the case of `CC(C)CN([C@@H](CCCCNC(=O)CCc1c[nH]c2ccccc12)C(=O)O)S(=O)(=O)c1ccc(N)cc1` [Compound No. 98, Nα-isobutyl-Nα-(4-aminobenzenesulfonyl)-Nε-(3-indolepropionyl)-L-lysine], affinity was put at a Ki of 10.1 nM.

Take `CC(C)CN([C@@H](CCCCNS(=O)(=O)c1ccc([N+](=O)[O-])cc1)C(=O)O)S(=O)(=O)c1ccc([N+](=O)[O-])cc1` [compound 116, Nα-isobutyl-Nα,Nε-di-(4-nitrobenzenesulfonyl)-L-lysine]: the inhibition constant (Ki) is more than 300 nM. With `O=C(N[C@@H](CNS(=O)(=O)c1ccc(Br)cc1)C(=O)O)OCC1c2ccccc2-c2ccccc21` [Compound No. 18, (S)-2-(9-fluorenylmethoxycarbonylamino)-3-(4-bromobenzenesulfonylamino)-propanoic Acid] the figure was 75000 nM. With `CC(C)CN([C@@H](CCCCNC(=O)OCC1c2ccccc2-c2ccccc21)C(=O)O)S(=O)(=O)c1ccc(N)cc1` [Compound No. 44, Nα-(4-aminobenzenesulfonyl)-Nα-isobutyl-Nε-(9-fluorenylmethoxycarbonyl)-L-lysine] the figure was 2.1 nM. In turn, `O=C(N[C@@H](CCCCNS(=O)(=O)c1ccc(Br)cc1)C(=O)O)C(c1ccccc1)c1ccccc1` [Compound No. 36, Nα-(diphenylacetyl)-Nε-(4-bromobenzenesulfonyl)-L-lysine] showed an inhibitory constant (Ki) of 24000 nM. Next, `Cc1ccc(S(=O)(=O)N(CC(C)C)[C@@H](CCCCNC(=O)OCC2c3ccccc3-c3ccccc32)C(=O)O)cc1` [Compound No. 67, Nα-isobutyl-Nα-(4-methylbenzenesulfonyl)-Nε-(9-fluorenylmethoxycarbonyl)-L-lysine]: 4.3 nM; `CC(C)CN([C@@H](CCCCNC(=O)OCc1ccccc1)C(=O)OCc1ccccc1)S(=O)(=O)c1ccc([N+](=O)[O-])cc1` [Compound No. 78, Nα-isobutyl-Nα-(4-nitrobenzenesulfonyl)-Nε-benzyloxycarbonyl-L-lysine Benzyl Ester]: more than 1250 nM. Next, `CC(C)CN([C@@H](CCCCNC(=O)CCCc1ccccc1)C(=O)O)S(=O)(=O)c1ccc(N)cc1` [Compound No. 121, Nα-isobutyl-Nα-(4-aminobenzenesulfonyl)-Nε-(4-phenylbutanoyl)-L-lysine]: more than 300 nM; `Nc1ccc(S(=O)(=O)NCCC[C@H](NC(=O)OCC2c3ccccc3-c3ccccc32)C(=O)O)cc1` [Compound No. 69, Nδ-(4-aminobenzenesulfonyl)-Nα-(9-fluorenylmethoxycarbonyl)-L-ornithine]: 23800 nM. Compound `COC(=O)[C@H](CCCCNS(=O)(=O)c1ccc(Br)cc1)NC(=O)OCC1c2ccccc2-c2ccccc21` [Compound No. 15, Nα-(9-fluorenylmethoxycarbonyl)-Nε-(4-bromobenzenesulfonyl)-L-lysine Methyl Ester] registered an inhibitory constant (Ki) of 47000 nM. For the compound `Cc1cc(C)c(S(=O)(=O)NCCCC[C@H](NC(=O)OCC2c3ccccc3-c3ccccc32)C(=O)O)c(C)c1` [Compound No. 27, Nε-(2,4,6-trimethylbenzenesulfonyl)-Nα-(9-fluorenylmethoxycarbonyl)-L-lysine], the inhibition constant Ki was more than 50000 nM. Next, `CC(C)CN(C(CCCCNC(=O)OCc1ccccc1)C(=O)O)S(=O)(=O)c1ccc(I)cc1` (racemic) [Compound No. 48, Nα-isobutyl-Nα-(4-iodobenzenesulfonyl)-Nε-benzyloxycarbonyl-DL-lysine]: more than 100 nM; `O=C(O)[C@H](CCCN(Cc1ccc(F)cc1)S(=O)(=O)c1ccc(Br)cc1)NS(=O)(=O)c1ccc(Br)cc1` [Compound No. 59, Nα,Nδ-di-(4-bromobenzenesulfonyl)-Nδ-(4-fluorobenzyl)-L-ornithine]: more than 34900 nM; `COc1cccc(C=CC(=O)NCCCC[C@@H](C(=O)O)N(CC(C)C)S(=O)(=O)c2ccc([N+](=O)[O-])cc2)c1` [Compound No. 162, Nα-isobutyl-Nα-(4-nitrobenzenesulfonyl)-Nε-(3-methoxycinnamoyl)-L-lysine]: more than 300 nM. Take `CC(C)CN([C@@H](CCCCNC(=O)CCc1c[nH]c2ccccc12)C(=O)O)S(=O)(=O)c1ccc([N+](=O)[O-])cc1` [Compound No. 95, Nα-isobutyl-Nα-(4-nitrobenzenesulfonyl)-Nε-(3-indolepropionyl)-L-lysine]: the affinity, expressed as Ki, was 33.4 nM.

Regarding `O=C(N[C@@H](CCCCNS(=O)(=O)c1ccc2ccccc2c1)C(=O)O)OCC1c2ccccc2-c2ccccc21` [Compound No. 32, Nε-(2-naphthalenesulfonyl)-Nα-(9-fluorenylmethoxycarbonyl)-L-lysine], the Ki stood at 10000 nM. For `O=C(NCCCC[C@H](NS(=O)(=O)c1ccc([N+](=O)[O-])cc1)C(=O)O)OCC1c2ccccc2-c2ccccc21` [Compound No. 103, Nα-(4-nitrobenzenesulfonyl)-Nε-(9-fluorenylmethoxycarbonyl)-L-lysine], the Ki amounted to 3300 nM. With `O=C(N[C@@H](CCCCNS(=O)(=O)c1ccc(Br)cc1)C(=O)O)c1ccccc1` [Compound No. 65, Nα-benzoyl-Nε-(4-bromobenzenesulfonyl)-L-lysine] the figure was more than 50000 nM. Next, `O=C(N[C@@H](CCCCNS(=O)(=O)c1cccc(C(F)(F)F)c1)C(=O)O)OCC1c2ccccc2-c2ccccc21` [Compound No. 34, Nε-(3-trifluoromethylbenzenesulfonyl)-Nα-(9-fluorenylmethoxycarbonyl)-L-lysine]: 22000 nM; `Cc1ccc(S(=O)(=O)N(CC(C)C)C(CCCCNC(=O)OCC2c3ccccc3-c3ccccc32)C(=O)O)cc1` (racemic) [Compound No. 2, Nα-isobutyl-Nα-(4-methylbenzenesulfonyl)-Nε-(9-fluorenylmethoxycarbonyl)-DL-lysine]: 5 nM.
